{"source": "PubChem BioAssay (NCI)", "assay_in_all_cases": "NCI tumour cell line growth inhibition, 48 h", "key": {"SF-295 CNS": {"test_system": "SF-295 CNS"}, "TK-10 renal": {"test_system": "TK-10 renal"}, "IGROV1 ovarian": {"test_system": "IGROV1 ovarian"}, "SK-OV-3 ovarian": {"test_system": "SK-OV-3 ovarian"}, "BT-549 breast": {"test_system": "BT-549 breast"}, "DMS 273 small cell lung": {"test_system": "DMS 273 small cell lung"}, "NCI-H226 lung": {"test_system": "NCI-H226 lung"}, "EKVX NSCLC": {"test_system": "EKVX NSCLC"}, "M19-MEL melanoma": {"test_system": "M19-MEL melanoma"}, "PC-3 prostate": {"test_system": "PC-3 prostate"}, "OVCAR-8 ovarian": {"test_system": "OVCAR-8 ovarian"}, "DLD-1 colon": {"test_system": "DLD-1 colon"}, "DU-145 prostate": {"test_system": "DU-145 prostate"}, "SF-268 CNS": {"test_system": "SF-268 CNS"}, "MCF7 breast": {"test_system": "MCF7 breast"}, "KM20L2 colon": {"test_system": "KM20L2 colon"}, "M14 melanoma": {"test_system": "M14 melanoma"}}, "note": "Several values for one entry are separate records, joined by “and”; a condition that tells them apart may be missing. Equal values may be shown once.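 In this assay, cells in 96-well plates receive the compound at five concentrations for 48 hours. Endpoints are linearly interpolated between the surrounding concentrations. GI50 marks 50% less growth. The concentration for full growth arrest is given as TGI.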"}
{"smiles": "CN1C(=O)CC2(C)c3cc(O)ccc3N(C)C12", "note": "(configuration not stated)", "values": [{"measurement": "GI50", "setting": "SF-295 CNS", "result": 13, "unit": "µM"}, {"measurement": "TGI", "setting": "SF-295 CNS", "result": "23.7 µM and 54.9 µM"}, {"measurement": "GI50", "setting": "TK-10 renal", "result": "> 75", "unit": "µM"}, {"measurement": "TGI", "setting": "TK-10 renal", "result": "> 100", "unit": "µM"}, {"measurement": "TGI", "setting": "IGROV1 ovarian", "result": "75 µM and 68.8 µM"}, {"measurement": "GI50", "setting": "SK-OV-3 ovarian", "result": "> 75", "unit": "µM"}, {"measurement": "TGI", "setting": "SK-OV-3 ovarian", "result": "> 100", "unit": "µM"}, {"measurement": "GI50", "setting": "BT-549 breast", "result": 30.3, "unit": "µM"}, {"measurement": "TGI", "setting": "BT-549 breast", "result": "75 µM and 30.8 µM"}, {"measurement": "TGI", "setting": "DMS 273 small cell lung", "result": "> 100", "unit": "µM"}, {"measurement": "GI50", "setting": "NCI-H226 lung", "result": 19.5, "unit": "µM"}, {"measurement": "TGI", "setting": "NCI-H226 lung", "result": "54.4 µM and 71.9 µM"}, {"measurement": "GI50", "setting": "EKVX NSCLC", "result": "> 75", "unit": "µM"}, {"measurement": "TGI", "setting": "EKVX NSCLC", "result": "> 75 µM and 44.2 µM"}, {"measurement": "TGI", "setting": "M19-MEL melanoma", "result": 46.2, "unit": "µM"}, {"measurement": "GI50", "setting": "PC-3 prostate", "result": "> 75", "unit": "µM"}, {"measurement": "TGI", "setting": "PC-3 prostate", "result": "> 100", "unit": "µM"}, {"measurement": "TGI", "setting": "OVCAR-8 ovarian", "result": 61.4, "unit": "µM"}, {"measurement": "TGI", "setting": "DLD-1 colon", "result": "> 100", "unit": "µM"}, {"measurement": "GI50", "setting": "DU-145 prostate", "result": "> 75", "unit": "µM"}, {"measurement": "TGI", "setting": "DU-145 prostate", "result": "> 75", "unit": "µM"}, {"measurement": "GI50", "setting": "SF-268 CNS", "result": 38.6, "unit": "µM"}, {"measurement": "TGI", "setting": "SF-268 CNS", "result": "75 µM and 60.6 µM"}, {"measurement": "GI50", "setting": "MCF7 breast", "result": 14, "unit": "µM"}, {"measurement": "TGI", "setting": "MCF7 breast", "result": "27.8 µM and 35.8 µM"}, {"measurement": "TGI", "setting": "KM20L2 colon", "result": "> 100", "unit": "µM"}, {"measurement": "TGI", "setting": "M14 melanoma", "result": 44.6, "unit": "µM"}]}
